# In patent US12377063B2, “Combination therapies for managing cancer” (Emory University, priority 2019, dated 2025):
# Columns and labels:
# Format in all cases: cell-based
# [1] = system: pPDHS293 in follower cells; test: pPDHS293 after alexidine treatment, follower cells
# leader cells [2] = test: Lactate production after alexidine treatment; settings: alexidine treatment for 24 hours
# [3] = system: multiple lung and mixed leader:follower lines; test: Collective invasion of spheroids embedded in Matrigel; settings: alexidine alone
# From the text: Brightfield representative images are shown. Solid lines designate outer perimeter. Scale bar=50 μm.
# (§1) Compounds were screened, and it was discovered that most compounds effective at inhibiting lead cells were typically anti-metabolic agents that disrupt OXPHOS. One such compound, alexidine hydrochloride targets mitochondrial function. Leader cells are sensitive to mitochondria-targeting agents as a class.
# (§2) Since alexidine inhibits active PDH in leaders and Bay-876 targets GLUT1, the combination of alexidine and Bay-876 to co-target these cellular subtypes, respectively, during collective invasion was examined. To quantitatively determine synergy a combination index analyses was used. […] Importantly, normal lung epithelial cells (HBEC, MRC5) had no synergy at low and moderate doses (FIG. 8A). The effects of Bay-876 plus alexidine on invasion were examined. […] It is also contemplated that one can co-target metabolically heterogeneous populations using the combination of the leader cell targeting agent, alexidine, and the GLUT1 targeting agent, BAY-876 or the glycolytic/PPP activity of followers and OXHOS-driven biology of the leaders in a manor illustrated in the table below.
# leader cells [4] = test: Cell death in leader cells; settings: after 72 hours
# From the text: as §1
# [5] = system: p-PDHS293 in leader cells; test: p-PDHS293 after alexidine treatment, leader cells; settings: alexidine treatment for 24 hours
# From the text: Alexidine Dihydrochloride Induces Metabolic Reprogramming of Leader Cells Via S293 Phosphorylation of PDH
# as §2
# follower/leader cells = settings: leaders vs followers; 72 hrs of treatment; FIG. 3D
# parental H1299 cells = test: Spheroid invasion assay, parental H1299; settings: FIG. 7E
# Protocol: (§3) To determine how GLUT1 expression in followers could be regulated upstream, signaling alterations that might contribute to altered GLUT1 expression in leaders and followers were evaluated. YAP and TAZ are transcriptional co-activators of TEAD (Hippo signaling) and regulate GLUT1 expression. YAP/TEAD 1-4 members were interrogated. […] Cells were treated with the YAP/TEAD inhibitor, verteporfin, which has promising anti-tumor activity.
# H1299 cells = test: Cell number / viability after verteporfin; settings: parental H1299 cells; 72 hours; FIG. 7D
# Protocol: as §3
# [6] = system: GLUT1 mRNA expression in followers; test: GLUT1 mRNA expression by qRT-PCR; settings: 24 hrs, FIG. 7C
# Protocol: as §3
compound,measurement,setting,value
"CCCCC(CC)CNC(=N)NC(=N)NCCCCCCNC(=N)NC(=N)NCC(CC)CCCC (centres unmarked) [Alexidine, 1,1′-(hexane-1,6-diyl)bis(5-(2-ethylhexyl)biguanidine)]",impact on pPDHS293,[1],no significant impact
same,lactate production,leader cells [2],increased lactate production
same,doses decreasing invasiveness relative to doses inducing cell death,[3]; earlier time points prior to effect on proliferation,doses lower than those that induce cell death
same,collective invasion,[3]; multiple lung cell lines,dose-dependent inhibition
same,cell death,leader cells [4],no significant amount of cell death
same,p-PDHS293 level,[5],increased p-PDHS293
CN(C)C(=N)N=C(N)N [metformin],sensitivity of leaders to complex I inhibitors (proliferation),follower/leader cells,increased sensitivity
"C/C=C(\C)[C@H](O)[C@H](C)/C=C(C)/C=C/C/C(C)=C/Cc1nc(OC)c(OC)c(O)c1C [piericidin, piericidin A]",sensitivity of leaders to complex I inhibitors (proliferation),follower/leader cells,increased sensitivity
verteporfin,invasive properties (invasive area),parental H1299 cells,significantly reduced
same,proliferative properties (cell number),H1299 cells,significantly reduced
same,GLUT1 mRNA expression,[6],suppressed GLUT1 mRNA expression in followers in a dose-dependent manner
